The values below come from patent US20220160686A1, “MACROCYCLIC AZOLOPYRIDINE DERIVATIVES AS EED AND PRC2 MODULATORS” (Fulcrum Therapeutics, Inc., priority 2019, published 2022).

The target in experiment [1] is T1, biotinylated AVI-tagged EED (76-441) (Homo sapiens, UniProt O75530).
T1 construct: GST (N, cleaved yes); made in house; host or cells: E. coli BL21(DE3), co-expressed with pGro7
Nature of the experiment: EED binding SPR assay. As to conditions: 1:1 binding model; read-out: KD, equilibrium dissociation constant as measured by surface plasmon resonance (SPR). In a few lines: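 Biotinylated AVI-EED(76-441) from E. coli was captured on Biotin CAPture chips (2200–2400 RU) in 10 mM HEPES pH 7.4, 150 mM NaCl, 0.05% Tween 20 and 2% DMSO. Compounds were run at 7 concentrations (3-fold dilutions) with 90 s association and 180 s dissociation, chip at 25 °C. Data were fitted to a 1:1 binding model.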
Background: SPR reads the build-up and loss of mass on a sensor chip optically.

For another experiment, the target named is EZH2/PRC2 complex (Homo sapiens, UniProt O75530). Kind of experiment: Histone methyltransferase assay (radioisotope-based HotSpot). Format: biochemical. To be noted: EZH2/PRC2 complex 10 nM, core histone substrate 0.05 mg/ml, 3H-SAM 1 μM; read-out: IC50, inhibitory effects on the HMT enzyme. The protocol: Effect of compounds of the present disclosure on EZH2/PRC2 complex methyltransferase functional activity was measured using the radioisotope-based HotSpot assay described by Horiuchi, K. Y., et al. Assay Drug Dev Technol. 11(4):227-36 (2013). Briefly, compounds were prepared in a 10-point 3-fold serial dilution in DMSO from a 10 mM stock in ECHO qualified plate using Assist Plus (Integra Biosciences) liquid handler. […] Nanoliter quantities of each compound's concentration series were transferred into the enzyme/substrate mix using (Echo 550, LabCyte Inc. Sunnyvale, Calif.) acoustic dispenser and pre-incubated for 20 min at room temperature. The methylation reaction was initiated by the addition of 1 μl of 5 μM S-Adenosyl-L-[methyl-^3H]methionine (^3H-SAM) and incubated at 30° C. for 1 h. The final concentration of the EZH2/PRC2 complex, core histone substrate and ^3H-SAM were 10 nM, 0.05 mg/ml, and 1 μM respectively. The % activity of test samples were calculated with reference to positive (no compound) and negative (no EZH2/PRC2) controls on the plate using Excel (Microsoft). The resulting values were exported to Prism (GraphPad software) to generate concentration response curves and IC50 values using the four-parameter logistic equation.
EZH2/PRC2 complex, sequence (O75530 whole entry): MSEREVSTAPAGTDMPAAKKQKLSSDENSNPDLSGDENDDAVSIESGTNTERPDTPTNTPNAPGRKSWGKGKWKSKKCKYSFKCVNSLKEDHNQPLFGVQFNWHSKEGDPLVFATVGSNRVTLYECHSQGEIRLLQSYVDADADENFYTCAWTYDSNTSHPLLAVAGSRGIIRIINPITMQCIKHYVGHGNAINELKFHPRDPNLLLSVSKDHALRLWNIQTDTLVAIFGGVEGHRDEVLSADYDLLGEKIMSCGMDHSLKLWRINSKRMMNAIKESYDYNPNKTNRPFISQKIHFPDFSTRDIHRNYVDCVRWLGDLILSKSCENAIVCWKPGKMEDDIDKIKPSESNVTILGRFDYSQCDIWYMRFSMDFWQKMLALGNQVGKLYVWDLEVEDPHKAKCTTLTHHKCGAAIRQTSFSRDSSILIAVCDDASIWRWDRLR
EZH2/PRC2 complex, sequence (Q15910 whole entry partner): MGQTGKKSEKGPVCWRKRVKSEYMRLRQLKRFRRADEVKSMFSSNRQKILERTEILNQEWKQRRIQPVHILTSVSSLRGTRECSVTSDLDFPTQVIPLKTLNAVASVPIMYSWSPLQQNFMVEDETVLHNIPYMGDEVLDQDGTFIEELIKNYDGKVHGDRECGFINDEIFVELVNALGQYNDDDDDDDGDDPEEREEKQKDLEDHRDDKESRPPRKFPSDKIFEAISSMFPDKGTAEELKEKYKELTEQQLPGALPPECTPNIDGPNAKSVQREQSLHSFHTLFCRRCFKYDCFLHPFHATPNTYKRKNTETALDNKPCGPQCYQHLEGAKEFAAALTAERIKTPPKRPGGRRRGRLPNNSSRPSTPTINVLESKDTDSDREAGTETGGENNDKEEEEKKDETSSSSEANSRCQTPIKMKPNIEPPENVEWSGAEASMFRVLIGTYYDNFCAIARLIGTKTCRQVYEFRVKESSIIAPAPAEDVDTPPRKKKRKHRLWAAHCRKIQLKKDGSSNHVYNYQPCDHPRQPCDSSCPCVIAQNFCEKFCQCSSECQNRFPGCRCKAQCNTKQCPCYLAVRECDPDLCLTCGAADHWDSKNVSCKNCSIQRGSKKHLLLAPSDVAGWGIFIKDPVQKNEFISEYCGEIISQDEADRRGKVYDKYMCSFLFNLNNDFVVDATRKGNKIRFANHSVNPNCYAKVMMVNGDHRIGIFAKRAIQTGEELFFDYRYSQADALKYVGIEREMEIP
EZH2/PRC2 complex, sequence (Q15022 whole entry partner): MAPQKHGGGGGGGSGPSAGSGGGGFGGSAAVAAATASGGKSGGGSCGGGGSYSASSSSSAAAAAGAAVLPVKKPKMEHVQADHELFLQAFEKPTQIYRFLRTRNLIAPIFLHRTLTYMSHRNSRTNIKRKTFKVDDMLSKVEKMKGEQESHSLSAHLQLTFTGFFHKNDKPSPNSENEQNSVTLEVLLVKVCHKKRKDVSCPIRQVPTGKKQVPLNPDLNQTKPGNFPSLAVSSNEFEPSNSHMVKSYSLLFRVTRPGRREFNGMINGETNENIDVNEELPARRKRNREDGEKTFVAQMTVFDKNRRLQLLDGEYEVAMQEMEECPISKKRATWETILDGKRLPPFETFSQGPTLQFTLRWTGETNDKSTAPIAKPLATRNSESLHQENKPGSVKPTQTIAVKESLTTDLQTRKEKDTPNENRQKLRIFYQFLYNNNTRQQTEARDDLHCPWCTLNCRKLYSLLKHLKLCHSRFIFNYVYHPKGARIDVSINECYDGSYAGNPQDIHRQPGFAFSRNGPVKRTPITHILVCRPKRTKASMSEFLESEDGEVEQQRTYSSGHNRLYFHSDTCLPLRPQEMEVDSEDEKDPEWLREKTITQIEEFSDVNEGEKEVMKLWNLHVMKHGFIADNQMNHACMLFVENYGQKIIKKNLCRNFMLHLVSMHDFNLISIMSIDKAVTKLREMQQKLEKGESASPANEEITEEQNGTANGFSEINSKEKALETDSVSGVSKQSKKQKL

T1 sequence (O75530 76-441 limits assumed): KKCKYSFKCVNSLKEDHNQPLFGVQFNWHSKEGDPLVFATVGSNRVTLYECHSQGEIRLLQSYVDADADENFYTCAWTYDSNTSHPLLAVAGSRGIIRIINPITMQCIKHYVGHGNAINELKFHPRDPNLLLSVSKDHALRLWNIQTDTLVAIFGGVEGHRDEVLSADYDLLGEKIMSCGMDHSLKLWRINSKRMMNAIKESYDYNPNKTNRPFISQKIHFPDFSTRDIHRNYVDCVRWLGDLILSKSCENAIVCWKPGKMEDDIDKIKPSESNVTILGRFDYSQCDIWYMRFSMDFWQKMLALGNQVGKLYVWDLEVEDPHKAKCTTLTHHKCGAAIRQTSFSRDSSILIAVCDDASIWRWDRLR

In general, Kd refers to a measure of binding affinity in units of concentration. Broadly, the IC50 is the concentration that inhibits the measured activity by half. Take `c1cc2c3c(c1)OC[C@H]3COc1ccc3nncn3c1NC2` [Compound 11, (S)-7a,8,13,14-tetrahydro-7H-[1,2,4]triazolo[4′,3′:1,6]pyrido[3,2-b]benzofuro[4,3-fg][1,4]oxazonine]: in experiment [1], the Kd was greater than 50 nM. In addition, the IC50 on EZH2/PRC2 complex is 100 to 500 nM.

Take `Cn1nccc1-c1cc2c(n3cnnc13)NCc1c(F)ccc3c1C(CO3)CO2` (stereo not drawn) [Example 17]: in experiment [1], the Kd was less than 2.5 nM. Moreover, the IC50 on EZH2/PRC2 complex is less than 25 nM.

As to `CN(CC(F)(F)F)C(=O)c1cc2c(n3cnnc13)NCc1c(F)ccc3c1C(CO3)CO2` (stereo not drawn) [Example 38], the Kd in experiment [1] was 2.5 to 5 nM. Further, on EZH2/PRC2 complex, the half-inhibitory concentration (IC50) was less than 25 nM.

On to `CC(=O)N1CCC(c2cc3c(n4cnnc24)NCc2cccc4c2[C@@H](CO4)CO3)CC1` [Compound 3, (S)-1-(4-(7a,8,13,14-tetrahydro-7H-[1,2,4]triazolo[4′,3′:1,6]pyrido[3,2-b]benzofuro[4,3-fg][1,4]oxazonin-4-yl)piperidin-1-yl)ethan-1-one], for which the Kd in experiment [1] was less than 2.5 nM. In addition, at EZH2/PRC2 complex, the IC50 was less than 25 nM.

On to `Cn1nc(C(F)(F)F)cc1-c1cc2c(n3cnnc13)NCc1c(F)ccc3c1[C@H](CO3)CO2` [Example 115], for which the Kd in experiment [1] is less than 2.5 nM. Further, the IC50 at EZH2/PRC2 complex is less than 25 nM.

For `Cc1cc(C#N)ccc1-c1cc2c(n3cnnc13)NCc1c(F)ccc3c1[C@H](CO3)CO2` [Example 49], the Kd in experiment [1] is less than 2.5 nM. Besides, the 50% inhibitory concentration (IC50) on EZH2/PRC2 complex was less than 25 nM.

As for `Fc1cncnc1-c1cc2c(n3cnnc13)NCc1c(F)ccc3c1[C@@H](CO3)CO2` [Compound 164, (S)-12-fluoro-4-(5-fluoropyrimidin-4-yl)-7a,8,13,14-tetrahydro-7H-[1,2,4]triazolo[4′,3′:1,6]pyrido[3,2-b]benzofuro[4,3-fg][1,4]oxazonine], the Kd in experiment [1] was less than 2.5 nM. Besides, the half-maximal inhibitory concentration (IC50) at EZH2/PRC2 complex was less than 25 nM.

As to `CC(=O)N1CCC(c2cc3c(n4cnnc24)NCc2c(F)cccc2CCO3)CC1` [Compound 4, 1-(4-(12-fluoro-7,8,13,14-tetrahydro-[1,2,4]triazolo[4′,3′:1,6]pyrido[3,2-b]benzo[f][1,4]oxazonin-4-yl)piperidin-1-yl)ethan-1-one], the Kd in experiment [1] lay in the range of 10 to 50 nM. In addition, the IC50 at EZH2/PRC2 complex is less than 25 nM.

On to `Cc1cn(-c2cc3c(n4cnnc24)NCc2c(F)ccc4c2[C@@H](CO4)CO3)cn1` [Compound 15, (S)-12-fluoro-4-(4-methyl-1H-imidazol-1-yl)-7a,8,13,14-tetrahydro-7H-[1,2,4]triazolo[4′,3′:1,6]pyrido[3,2-b]benzofuro[4,3-fg][1,4]oxazonine], for which the Kd in experiment [1] was less than 2.5 nM. Besides, the IC50 on EZH2/PRC2 complex is less than 25 nM.
